Measured values from US7745465B2, “Method of enhancing cellular production of molecular chaperone, hydroxylamine derivatives useful for enhancing the chaperone production and the preparation thereof” (CytRx Corporation, priority 1995, dated 2010).

Experiments:
GRP-94 = experiment: Level of GRP-94 in STZ diabetic rat liver (Western blot); type: in vivo; settings: for relative amount of GRP-94: rats diabetic for 4 weeks
[1] = system: WEHI mouse fibrosarcoma cell; experiment: Serum deprivation, cell viability by MTT test (WEHI); type: cell-based; settings: serum deprived WEHI, 10^−5 M, control 100%, serum deprived alone 74.8%, read-out: relative cell viability
Method: Experiments were carried out using WEH1 mouse fibrosarcoma and H9c2 rat heart muscle cell lines divided into three groups: • control (10% FCS fetal calf serum) • serum deprived • N-[2-hydroxy-3-(1-piperidinyl)propoxy]-3-pyridinecarboximidoyl chloride maleate (10^−5 M) treated and serum deprived 1.2(i) Serum Deprivation and MTT Test
We have screened various cell lines, drug concentrations, pretreatment and deprivation times and we have found the most appropriate conditions as follows: […] H9c2 rat heart muscle cell (n=6) and WEHI mouse fibrosarcoma cell (n=7) have been plated on 24 well plates in 10% FCS DMEM (Dulbecco modified Eagle's medium) and incubated for 2 hours at 37 C, 5% CO2. Medium has been discarded and replaced by 10% FCS DMEM containing 10^−5 M N-[2-hydroxy-3-(1-piperidinyl)propoxy ]-3-pyridinecarboximidoyl chloride maleate. […] Cell viability was measured by MTT test based on the method of Plumb et al. (Cancer Res. 49: 4435-4444 (1989)) The tetrazolium salt method involving conversion of MTT (3-(4,5-dimethylthiazol-2yl)-2,5-diphenyltetrazolium bromide) to colored formazan by alive cells, served as an indirect measurement of cell viability. […] O.D. of the plates was read at 570 nm on an ELISA plate reader (Labsystems Multiskan Biochromatic type:348). […] Relative cell viability was calculated defining control group as 100%.

K562 cells = experiment: Sensitivity of K562 cells to lysis mediated by NK cells; type: cell-based, human; settings: heat shock plus treatment
hsp72 = experiment: Heat stress induced hsp72 level in U-937 leukemia cells; type: cell-based, human; settings: U-937 cells, 10^−5 M, treatment preceded heat stress
Method: From the applied cells the 3T3 and L-929 mouse fibroblasts were cultured in MEM medium and grew in monolayer, the U-937 human leukemia cells were maintained in RPMI-1640 medium, in suspension culture, while the HeLa human epithelial cells were cultured in DMEM medium and in monolayer form. Cell cultures were maintained as described in example 6.2 (a) with the difference that cells were cultured in the above mentioned culture mediums.
Experiments were carried out applying stress before and after the drug treatment. Stress was provoked by heat, by chemical agent, HgCl2 treatment. The test compounds were applied in the treatments at the 10^−5 M concentration.
The experiments on 3T3 cell applying heat stress were performed as described in the 6.2. (c) point of example 6, with the difference that stress was induced by a 30 min. exposure at 43° C. temperature and treatment with the test compounds was performed 15 min. before or 100 min. after the heat stress.
Experiments using heat shock on U-937 leukemia and L-929 mouse fibroblast cells were carried out similarly as described above, but drug treatments in these tests always preceded the heat stress. The compound N-[2-hydroxy-3-(1-piperidinyl)-propoxy]-3-pyridine-carboximidoyl chloride maleate was tested at the 10^−5 M concentration under these experimental conditions.

O=C(O)/C=C\C(=O)O.OC(CON=C(Cl)c1cccnc1)CN1CCCCC1 (stereo not shown) [N-[2-hydroxy-3-(1-piperidinyl)-propoxy]3-pyridinecarboximidoyl chloride maleate]
decrease of relative GRP-94 content (GRP-94; 1 week and 2-weeks diabetic animals, 20 mg/kg/day p.o.): completely be reverted | levels of GRP-94 compared to the control state (GRP-94; in combination with insulin, 1 week and 2-weeks samples): almost doubled | relative amount of GRP-94 (GRP-94; compound alone): no significant alteration | relative amount of GRP-94 (GRP-94; insulinized and treated with the compound): recovery of GRP-94 to the control level | viability at 10 µM [1]: 93% | lisability of K562 cells by NK cells (K562 cells): synergistic effect on the lisability of K562 cells | increase in the heat stress induced hsp72 level (hsp72): more than 50%
